In patent publication US6951884B2, “Fluorobenzamides and uses thereof” (Hoffmann-La Roche Inc., priority 2002, dated 2005):
Structures can show the parent of a compound that is named as a salt.

Target: T1, human MAO-B (Homo sapiens, UniProt P27338)
T1 construct: expressed in transfected cells; host or cells: EBNA cells (transient transfection); membranes obtained by homogenisation and centrifugation at 45,000 x g
T1 sequence (P27338 1-520): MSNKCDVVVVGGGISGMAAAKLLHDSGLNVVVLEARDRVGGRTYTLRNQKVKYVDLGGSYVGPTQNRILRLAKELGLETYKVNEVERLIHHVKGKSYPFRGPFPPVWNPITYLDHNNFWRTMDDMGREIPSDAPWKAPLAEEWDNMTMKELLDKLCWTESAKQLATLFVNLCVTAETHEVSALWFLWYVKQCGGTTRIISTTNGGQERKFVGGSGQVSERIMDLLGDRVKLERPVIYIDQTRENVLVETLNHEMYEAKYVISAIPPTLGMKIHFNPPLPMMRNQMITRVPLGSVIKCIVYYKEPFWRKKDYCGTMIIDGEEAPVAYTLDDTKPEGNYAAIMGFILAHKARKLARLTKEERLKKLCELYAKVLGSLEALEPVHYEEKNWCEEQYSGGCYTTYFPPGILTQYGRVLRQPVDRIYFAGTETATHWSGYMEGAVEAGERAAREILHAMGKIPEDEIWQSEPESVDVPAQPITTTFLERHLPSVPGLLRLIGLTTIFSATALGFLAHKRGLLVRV
Test: MAO-B enzymatic activity assay (spectrophotometric, tyramine/Amplex Red) on membranes of transfected EBNA cells
Format: biochemical
Conditions: membranes of EBNA cells transfected with human MAO-B cDNA; substrate tyramine; 30 min preincubation at 37° C.; read-out: IC50, MAO-B inhibition
Procedure: The cDNA's encoding human MAO-A and MAO-B were transiently transfected into EBNA cells using the procedure described by E.-J. Schlaeger and K. Christensen (Transient Gene Expression in Mammalian Cells Grown in Serum-free Suspension Culture; Cytotechnology, 15: 1-13, 1998). After transfection, cells were homogeneised by means of a Polytron homogeneiser in 20 mM Tris HCl buffer, pH 8.0, containing 0.5 mM EGTA and 0.5 mM phenylmethanesulfonyl fluoride. Cell membranes were obtained by centrifugation at 45,000×g and, after two rinsing step with 20 mM Tris HCl buffer, pH 8.0, containing 0.5 mM EGTA, membranes were eventually re-suspended in the above buffer and aliquots stored at −80° C. until use.
MAO-A and MAO-B enzymatic activity was assayed in 96-well-plates using a spectrophotometric assay adapted from the method described by M. Zhou and N. Panchuk-Voloshina (A One-Step Fluorometric Method for the Continuous Measurement of Monoamine Oxidase Activity, Analytical Biochemistry, 253: 169-174, 1997). Briefly, membrane aliquots were incubated in 0.1 M potassium phosphate buffer, pH 7.4, for 30 min at 37° C. with or without various concentrations of the compounds. After this period, the enzymatic reaction was started by the addition of the MAO substrate tyramine together with 1 U/ml horse-radish peroxidase (Roche Biochemicals) and 80 μM N-acetyl-3,7,-dihydroxyphenoxazine (Amplex Red, Molecular Probes). The samples were further incubated for 30 min at 37° C. in a final volume of 200 μl and absorbance was then determined at a wavelength of 570 nm using a SpectraMax plate reader (Molecular Devices). Background (non-specific) absorbance was determined in the presence of 10 μM clorgyline for MAO-A or 10 μM L-deprenyl for MAO-B.
IC50 values were determined from inhibition curves obtained using nine inhibitor concentrations in duplicate, by fitting data to a four parameter logistic equation using a computer program.

| IC50 | Structure (SMILES) |
| --- | --- |
| 23 nM | C[C@@H](CO)NC(=O)c1c(F)cc(OCc2ccc(F)cc2)cc1F [Example 45, (S)-2,6-Difluoro-4-(4-fluoro-benzyloxy)-N-(2-hydroxy-1-methyl-ethyl)-benzamide] |
| 18 nM | COCCNC(=O)c1ccc(OCc2ccc(F)cc2)c(F)c1 [Example 22, 3-Fluoro-4-(4-fluoro-benzyloxy)-N-(2-methoxy-ethyl)-benzamide] |
| 3.1 nM | NC(=O)CNC(=O)c1ccc(OCc2ccc(F)cc2)c(F)c1 [Example 19, 2-[4-(4-Fluorobenzyloxy)-3-fluoro-benzamido]acetamide] |
| 13 nM | COCCNC(=O)c1c(F)cc(OCc2ccc(F)cc2)cc1F [Example 41, 2,6-Difluoro-4-(4-fluoro-benzyloxy)-N-(2-methoxy-ethyl)-benzamide] |
| 8 nM | COC[C@H](C)NC(=O)c1ccc(OCc2cccc(F)c2)cc1F [Example 4, (S)-2-Fluoro-4-(3-fluoro-benzyloxy)-N-(2-methoxy-1-methyl-ethyl)-benzamide] |
| 7 nM | C[C@H](NC(=O)c1ccc(OCc2ccc(F)cc2)cc1F)C(N)=O [Example 11, (S)-N-(1-Carbamoyl-ethyl)-2-fluoro-4-(4-fluoro-benzyloxy)-benzamide] |
| 5 nM | NC(=O)CNC(=O)c1ccc(OCc2cccc(F)c2)c(F)c1 [Example 25, 2-[4-(3-Fluorobenzyloxy)-3-fluoro-benzamido]acetamide] |
| 25 nM | NC(=O)[C@H](CO)NC(=O)c1ccc(OCc2ccc(C(F)(F)F)cc2)c(F)c1 [Example 34, (S)-N-(1-Carbamoyl-2-hydroxy-ethyl)-3-fluoro-4-(4-trifluoromethyl-benzyloxy)-benzamide] |
| 11 nM | NC(=O)[C@H](CO)NC(=O)c1ccc(OCc2ccc(F)cc2)c(F)c1 [Example 20, (S)-N-(1-Carbamoyl-2-hydroxy-ethyl)-3-fluoro-4-(4-fluoro-benzyloxy)-benzamide] |
| 23 nM | C[C@@H](NC(=O)c1ccc(OCc2cccc(F)c2)c(F)c1)C(N)=O [Example 27, (R)-N-(1-Carbamoyl-ethyl)-3-fluoro-4-(3-fluoro-benzyloxy)-benzamide] |
| 22 nM | C[C@H](NC(=O)c1c(F)cc(OCc2ccc(F)cc2)cc1F)C(N)=O [Example 37, (S)-N-(1-Carbamoyl-ethyl)-2,6-difluoro-4-(4-fluoro-benzyloxy)-benzamide] |
| 5.9 nM | C[C@H](NC(=O)c1ccc(OCc2cccc(F)c2)cc1F)C(N)=O [Example 1, (S)-N-(1-Carbamoyl-ethyl)-2-fluoro-4-(3-fluoro-benzyloxy)-benzamide] |
| 12 nM | NC(=O)[C@H](CO)NC(=O)c1ccc(OCc2cccc(F)c2)c(F)c1 [Example 28, (S)-N-(1-Carbamoyl-2-hydroxy-ethyl)-3-fluoro-4-(3-fluoro-benzyloxy)-benzamide] |
| 7 nM | C[C@H](NC(=O)c1ccc(OCc2ccc(F)cc2)c(F)c1)C(N)=O [Example 18, (S)-N-(1-Carbamoyl-ethyl)-3-fluoro-4-(4-fluoro-benzyloxy)-benzamide] |
| 25.7 nM | C[C@H](NC(=O)c1ccc(OCc2ccc(C(F)(F)F)cc2)cc1F)C(N)=O [Example 12, (S)-N-(1-Carbamoyl-ethyl)-2-fluoro-4-(4-trifluoromethyl-benzyloxy)-benzamide] |
| 16 nM | NC(=O)CNC(=O)c1ccc(OCc2ccc(C(F)(F)F)cc2)c(F)c1 [Example 31, 2-[4-(4-Trifluoromethylbenzyloxy)-3-fluoro-benzamido]acetamide] |
| 19.5 nM | COCCNC(=O)c1ccc(OCc2cccc(F)c2)cc1F [Example 6, 2-Fluoro-4-(3-fluoro-benzyloxy)-N-(2-methoxy-ethyl)-benzamide] |
| 19 nM | NCCNC(=O)c1ccc(OCc2ccc(C(F)(F)F)cc2)c(F)c1 [Example 36, N-(2-Amino-ethyl)-3-fluoro-4-(4-trifluoromethyl-benzyloxy)-benzamide 1:1 hydrochloride] |
| 27 nM | NC(=O)CNC(=O)c1c(F)cc(OCc2ccc(F)cc2)cc1F [Example 39, N-Carbamoylmethyl-2,6-difluoro-4-(4-fluoro-benzyloxy)-benzamide] |
| 24 nM | COCCNC(=O)c1c(F)cc(OCc2cccc(F)c2)cc1F [Example 51, 2,6-Difluoro-4-(3-fluoro-benzyloxy)-N-(2-methoxy-ethyl)-benzamide] |
| 11.6 nM | NC(=O)[C@H](CO)NC(=O)c1ccc(OCc2cccc(F)c2)cc1F [Example 5, (S)-N-(1-Carbamoyl-2-hydroxy-ethyl)-2-fluoro-4-(3-fluoro-benzyloxy)-benzamide] |
| 11.6 nM | NC(=O)CNC(=O)c1ccc(OCc2ccc(F)cc2)cc1F [Example 10, 2-[4-(4-Fluorobenzyloxy)-2-fluoro-benzamido]acetamide] |
| 19 nM | C[C@H](NC(=O)c1ccc(OCc2cccc(F)c2)c(F)c1)C(N)=O [Example 26, (S)-N-(1-Carbamoyl-ethyl)-3-fluoro-4-(3-fluoro-benzyloxy)-benzamide] |
| 15.3 nM | NC(=O)CNC(=O)c1ccc(OCc2cccc(F)c2)cc1F [Example 2, 2-[4-(3-Fluorobenzyloxy)-2-fluoro-benzamido]acetamide] |
